Results from PMC6691788, “Design and synthesis of phthalazine-based compounds as potent anticancer agents with potential antiangiogenic activity via VEGFR-2 inhibition” (Journal of Enzyme Inhibition and Medicinal Chemistry, 2019).

Key:
[1] = tested on: HOP-62; assay: NCI 60 cell panel SRB screen; type: cell-based; conditions: Homo sapiens; for activity at 10 µM: HOP-62, single dose 10 μM, read-out: percent cell growth promotion
[2] = tested on: HCT-116; assay: NCI 60 cell panel SRB screen; type: cell-based; conditions: Homo sapiens; for activity at 10 µM: HCT-116, single dose 10 μM, read-out: percent cell growth promotion
[3] = tested on: HCT-15; assay: NCI 60 cell panel SRB screen; type: cell-based; conditions: Homo sapiens; for activity at 10 µM: HCT-15, single dose 10 μM, read-out: percent cell growth promotion
[4] = tested on: SF-295; assay: NCI 60 cell panel SRB screen; type: cell-based; conditions: Homo sapiens; for activity at 10 µM: SF-295, single dose 10 μM, read-out: percent cell growth promotion
[5] = tested on: SNB-19; assay: NCI 60 cell panel SRB screen; type: cell-based; conditions: Homo sapiens; for activity at 10 µM: SNB-19, single dose 10 μM, read-out: percent cell growth promotion
[6] = tested on: U251; assay: NCI 60 cell panel SRB screen; type: cell-based; conditions: Homo sapiens, U-251; for activity at 10 µM: U251, single dose 10 μM, read-out: percent cell growth promotion
[7] = tested on: M14; assay: NCI 60 cell panel SRB screen; type: cell-based; conditions: Homo sapiens; for activity at 10 µM: M14, read-out: percent cell growth promotion
[8] = tested on: MDA-MB-435; assay: NCI 60 cell panel SRB screen; type: cell-based; conditions: Homo sapiens; for activity at 10 µM: MDA-MB-435, read-out: percent cell growth promotion
[9] = tested on: SK-MEL-5; assay: NCI 60 cell panel SRB screen; type: cell-based; conditions: Homo sapiens; for activity at 10 µM: SK-MEL-5, read-out: percent cell growth promotion
[10] = tested on: UACC-62; assay: NCI 60 cell panel SRB screen; type: cell-based; conditions: for activity at 10 µM: UACC-62, read-out: percent cell growth promotion
[11] = tested on: A498; assay: NCI 60 cell panel SRB screen; type: cell-based; conditions: Homo sapiens; for activity at 10 µM: A498, single dose 10 μM, read-out: percent cell growth promotion
[12] = tested on: ACHN; assay: NCI 60 cell panel SRB screen; type: cell-based; conditions: Homo sapiens; for activity at 10 µM: single dose 10 μM, read-out: percent cell growth promotion
[13] = tested on: CAKI-1; assay: NCI 60 cell panel SRB screen; type: cell-based, human; conditions: for activity at 10 µM: CAKI-1, single dose 10 μM, read-out: percent cell growth promotion
[14] = tested on: SN12C; assay: NCI 60 cell panel SRB screen; type: cell-based; conditions: Homo sapiens; for activity at 10 µM: single dose 10 μM, read-out: percent cell growth promotion
[15] = tested on: DU-145; assay: NCI 60 cell panel SRB screen; type: cell-based; conditions: Homo sapiens; for activity at 10 µM: DU-145, single dose 10 μM, read-out: percent cell growth promotion
[16] = tested on: MCF7; assay: NCI 60 cell panel SRB screen; type: cell-based; conditions: Homo sapiens; for activity at 10 µM: MCF7, read-out: percent cell growth promotion
[17] = tested on: MDA-MB 231/ATCC; assay: NCI 60 cell panel SRB screen; type: cell-based; conditions: Homo sapiens; for activity at 10 µM: MDA-MB-231, read-out: percent cell growth promotion
[18] = tested on: HS 578T; assay: NCI 60 cell panel SRB screen; type: cell-based; conditions: Homo sapiens; for activity at 10 µM: read-out: percent cell growth promotion
[19] = tested on: full NCI 60 cell panel; assay: NCI 60 cell panel SRB screen, whole panel; type: cell-based, human; conditions: for activity at 10 µM: mean over the panel, single dose 10 μM, read-out: Mean percent cell growth promotion
[20] = 5 log dose, 48 h, read-out: LC50 (the source's name)

Cc1nnc(Oc2ccc(NC(=O)Nc3ccc(Cl)cc3)cc2)c2ccccc12 [Compound 7e, 1–(4-Chlorophenyl)-3–(4-(4-methylphthalazin-1-yloxy)phenyl)urea]
activity at 10 µM [1]: 71.1% | activity at 10 µM [2]: 72.5% | activity at 10 µM [3]: 69.5% | activity at 10 µM [4]: 91.8% | activity at 10 µM [5]: 84.1% | activity at 10 µM [6]: 60% | activity at 10 µM [7]: 79.4% | activity at 10 µM [8]: 79.2% | activity at 10 µM [9]: 70.2% | activity at 10 µM ([10]; Homo sapiens): 45.8% | activity at 10 µM [11]: 51.5% | activity at 10 µM [12]: 80.7% | activity at 10 µM ([13]; Homo sapiens): 79.7% | activity at 10 µM [14]: 79.1% | activity at 10 µM [15]: 81.4% | activity at 10 µM [16]: 72.7% | activity at 10 µM [17]: 52.9% | activity at 10 µM ([18]; Hs-578T): 76.4% | activity at 10 µM ([19]; Homo sapiens, 60 cell): 72.8% | cell growth inhibition, in words ([19]; single dose 10 µM): moderate cell growth inhibition against leukaemia and breast cell lines

Cc1nnc(Nc2ccc(NC(=O)Nc3ccc(Cl)cc3)cc2)c2ccccc12 [Compound 6e, 1–(4-Chlorophenyl)-3–(4-(4-methylphthalazin-1-ylamino)phenyl)urea]
GI50 ([1]; HOP-62, 5 log dose): 1.81 µM | IC (TGI) ([1]; HOP-62, 5 log dose): 3.7 µM | CC50 ([1]; HOP-62, 5 log dose, 48 h, read-out: LC50 (the source's name)): 7.56 µM | activity at 10 µM [1]: 44.2% | GI50 ([2]; HCT-116, 5 log dose): 1.86 µM | IC (TGI) ([2]; HCT-116, 5 log dose): 3.59 µM | LC50 (lethal concentration 50%) ([2]; HCT-116, 5 log dose, 48 h): 6.93 µM | activity at 10 µM [2]: 7.67% | GI50 ([3]; HCT-15, 5 log dose): 1.91 µM | IC (TGI) ([3]; HCT-15, 5 log dose): 4.53 µM | CC50 ([3]; HCT-15, 5 log dose, 48 h, read-out: LC50 (the source's name)): 13.9 µM | activity at 10 µM [3]: 6.39% | GI50 ([4]; SF-295, 5 log dose): 2.04 µM | IC (TGI) ([4]; SF-295, 5 log dose): 4.21 µM | CC50 ([4]; SF-295, 5 log dose, 48 h, read-out: LC50 (the source's name)): 8.68 µM | activity at 10 µM [4]: 4.8% | GI50 ([5]; SNB-19, 5 log dose): 2.77 µM | IC (TGI) ([5]; SNB-19, 5 log dose): 8.72 µM | CC50 ([5]; SNB-19, 5 log dose, 48 h, read-out: LC50 (the source's name)): 56.6 µM | activity at 10 µM [5]: 16.2% | GI50 ([6]; U251, 5 log dose): 1.98 µM | IC (TGI) ([6]; U251, 5 log dose): 3.75 µM | CC50 ([6]; U251, 5 log dose, 48 h, read-out: LC50 (the source's name)): 7.07 µM | activity at 10 µM [6]: 5.4% | GI50 ([7]; M14): 1.76 µM | IC (TGI) ([7]; M14, read-out: TGI): 3.57 µM | activity at 10 µM [7]: 37.3% | CC50 ([7]; M14, 5 log dose, 48 h, read-out: LC50 (the source's name)): 7.27 µM | GI50 ([8]; MDA-MB-435): 1.73 µM | IC (TGI) ([8]; MDA-MB-435, read-out: TGI): 3.43 µM | activity at 10 µM [8]: -40% | CC50 ([8]; MDA-MB-435, 5 log dose, 48 h, read-out: LC50 (the source's name)): 6.81 µM | GI50 ([9]; SK-MEL-5): 1.85 µM | IC (TGI) ([9]; SK-MEL-5, read-out: TGI): 3.5 µM | activity at 10 µM [9]: 52.3% | CC50 ([9]; SK-MEL-5, 5 log dose, 48 h, read-out: LC50 (the source's name)): 6.65 µM | GI50 ([10]; Homo sapiens, UACC-62): 1.75 µM | activity at 10 µM ([10]; Homo sapiens): -34.4% | CC50 ([10]; Homo sapiens, UACC-62, 5 log dose, 48 h, read-out: LC50 (the source's name)): 7.35 µM | TGI ([10]; UACC-62, 5 log dose): 3.59 µM | GI50 ([11]; A498, 5 log dose): 3.21 µM | IC (TGI) ([11]; A498, 5 log dose): 10.5 µM | CC50 ([11]; A498, 5 log dose, 48 h, read-out: LC50 (the source's name)): 38.5 µM | activity at 10 µM [11]: 35.4% | GI50 ([12]; 5 log dose): 1.84 µM | IC (TGI) ([12]; 5 log dose): 3.69 µM | CC50 [12, 20]: 7.41 µM | activity at 10 µM [12]: 58.8% | TGI ([13]; CAKI-1, 5 log dose): 12.8 µM | GI50 ([13]; Homo sapiens, CAKI-1, 5 log dose): 3.49 µM | CC50 ([13]; Homo sapiens, CAKI-1, 5 log dose, 48 h, read-out: LC50 (the source's name)): 43.6 µM | activity at 10 µM ([13]; Homo sapiens): 33.9% | GI50 ([14]; 5 log dose): 2.86 µM | IC (TGI) ([14]; 5 log dose): 9.41 µM | CC50 [14, 20]: 60.1 µM | activity at 10 µM [14]: 60.1% | GI50 ([15]; DU-145, 5 log dose): 4.77 µM | IC (TGI) ([15]; DU-145, 5 log dose): 19.5 µM | CC50 ([15]; DU-145, 5 log dose, 48 h, read-out: LC50 (the source's name)): 66.9 µM | activity at 10 µM [15]: 57.8% | GI50 ([16]; MCF7): 2.21 µM | IC (TGI) ([16]; MCF7, read-out: TGI): 10.9 µM | activity at 10 µM [16]: 24.9% | CC50 ([16]; MCF7, 5 log dose, 48 h, read-out: LC50 (the source's name)): 68.7 µM | GI50 ([17]; MDA-MB-231): 2.38 µM | IC (TGI) ([17]; MDA-MB-231, read-out: TGI): 5.94 µM | activity at 10 µM [17]: 23.1% | CC50 ([17]; MDA-MB-231, MDA-MDA 231/ATCC, 5 log dose, 48 h, read-out: LC50 (the source's name)): 33.9 µM | GI50 ([18]; Hs-578T): 2.52 µM | IC (TGI) ([18]; Hs-578T, read-out: TGI): 6.4 µM | activity at 10 µM ([18]; Hs-578T): 3.43% | CC50 ([18]; HS 578T, 5 log dose, 48 h, read-out: LC50 (the source's name)): > 100 µM | activity at 10 µM ([19]; Homo sapiens, 60 cell): 23.2% | inhibition at 10 µM ([19]; Homo sapiens, 60 cell, single dose 10 µM, read-out: cell growth inhibition against various cell lines): > 90% | cell growth inhibition, in words ([19]; single dose 10 µM): lethal effect (above 100% inhibition) against several leukaemia, melanoma, renal cancer cell lines

c1ccc(N2CCN(c3nncc4ccccc34)CC2)nc1 [Compound 8d, 1–(4-(Pyridin-2-yl)piperazin-1-yl)phthalazine]
activity at 10 µM [1]: 110% | activity at 10 µM [2]: 103% | activity at 10 µM [3]: 108% | activity at 10 µM [4]: 107% | activity at 10 µM [5]: 113% | activity at 10 µM [6]: 96.9% | activity at 10 µM [7]: 102% | activity at 10 µM [8]: 104% | activity at 10 µM [9]: 97.5% | activity at 10 µM ([10]; Homo sapiens): 99.6% | activity at 10 µM [11]: 97.8% | activity at 10 µM [12]: 115% | activity at 10 µM ([13]; Homo sapiens): 109% | activity at 10 µM [14]: 102% | activity at 10 µM [15]: 99% | activity at 10 µM [16]: 105% | activity at 10 µM [17]: 108% | activity at 10 µM ([18]; Hs-578T): 109% | activity at 10 µM ([19]; Homo sapiens, 60 cell): 104% | cell growth inhibition, in words ([19]; single dose 10 µM): nor the piperazines (8a, 8d, 8f, 8g, 8h and 8i) showed any significant cell line growth inhibition
